Test results published in US20240124434A1, “ATF6 INHIBITORS AND USES THEREOF” (Altos Labs, Inc., priority 2018, published 2024).
Values after ≈ are worked out from the molar mass of the structure shown. Where two headings read alike, the source gives them in different places.

Legend:
in vivo = conditions: Balb/c, mouse, po, 10 mg/kg
Procedure: (§3) Tested compounds were formulated at 1 mg/mL as a dosing solution for oral administration in vehicle A: 10% dimethylacetamide (DMAC), 20% propylene glycol, and 40% PEG-400 or vehicle B: 10% Kolliphor® EL and 10% ethanol (EtOH).
(§4) Animals were acclimated for a minimum period of 4 days upon arrival at the testing facility.
(§5) At the day of study, mice were weighed, identified by marking the tail with numbers using a non-toxic permanent marker, and designated into ten experimental groups (n=3 per group).
(§6) Non-dosed mice were used to collect samples of zero time points. […] Blood samples were centrifuged immediately at 9,000 g at 4° C. for 5 minutes and then plasmas were separated. Plasma samples were placed into individually labeled cryovials and stored in a −80° C. freezer until LC/MS/MS bioanalysis.
(§7) The bioanalysis of plasma samples was conducted with a QTRAP 4500 triple quadrupole mass spectrometer (Applied Biosystems SCIEX) in the positive ion mode and interfaced with an Ekspert Ultra LC100 UPLC System (Eksigent). Calibration standards (0.01 to 10 μM) and QCs (0.02, 0.2 and 2.0 μM) were prepared from naïve mouse plasma in parallel with mouse plasma study samples (60 μL) by precipitation with three volumes of ice cold internal standard solution (acetonitrile containing 20 μM of theophylline). The precipitated samples were centrifuged at 6,100 g for 30 min. Following centrifugation, an aliquot of each supernatant was transferred to an autosampler plate and diluted with two volumes of aqueous mobile phase (0.1% formic acid in water). Samples were injected onto a reverse phase analytical column (YMC Triart C18; 2.0×50 mm; 1.9 μm; YMC CO) and eluted with a gradient of 0.1% formic acid in Acetonitrile. Assayed test compound and internal standards were monitored by a multiple reaction monitoring (MRM) experiment using an Analyst software (v1.6.2, Applied Biosystems SCIEX). Quantitation was conducted using a MultiQuant software (v2.1, Applied Biosystems SCIEX) and the resulting calibration curve was fitted with a linear regression and 1/x weighting. The lower limits of quantitation were 1<LLQ <5 ng/mL.

CYP2B6 = CYP2B6 (Homo sapiens (Human), UniProt P20813); assay: CYP inhibition in human liver microsomes
Procedure: (§1) CYP inhibition by test compounds in human liver microsomes (HLM) for seven major CYP450 isoforms CYP1A2, CYP2C9, CYP2D6, CYP2B6, CYP2C8, CYP2C19 and CYP3A4 were assessed. […] 50 μM phenacetin, 2 μM midazolam, 5 μM diclofenac, 50 μM mephenytoin, 80 μM bupropion, and 5 μM dextromethorphan were used as probe substrates of CYP1A2, CYP3A4, CYP2C9, CYP2C19, CYP2B6, and CYP2D6, respectively. The incubation times were 20 min for […], CYP2D6, CYP2C9, CYP2B6, and CYP2C8; 40 min for CYP2C19; and 10 min for CYP 3A4. Following incubations, the reactions were terminated with acetonitrile containing internal standard. The samples were centrifuged and the supernatants were analyzed for the formation of metabolites (1-hydroxymidazolam (CYP3A4), 4-hydroxydiclofenac (CYP2C9), 4-hydroxymephenytoin (CYP2C19) and dextrorphan (CYP2D6), hydroxybupropion (CYP2B6), acetaminophen (CYP1A2), desethylamodiaquine (CYP2C8)) by LC/MS/MS.

CYP3A4 = CYP3A4 (Homo sapiens (Human), UniProt P08684); assay: CYP inhibition in human liver microsomes
Chain of CYP3A4 (P08684 whole entry): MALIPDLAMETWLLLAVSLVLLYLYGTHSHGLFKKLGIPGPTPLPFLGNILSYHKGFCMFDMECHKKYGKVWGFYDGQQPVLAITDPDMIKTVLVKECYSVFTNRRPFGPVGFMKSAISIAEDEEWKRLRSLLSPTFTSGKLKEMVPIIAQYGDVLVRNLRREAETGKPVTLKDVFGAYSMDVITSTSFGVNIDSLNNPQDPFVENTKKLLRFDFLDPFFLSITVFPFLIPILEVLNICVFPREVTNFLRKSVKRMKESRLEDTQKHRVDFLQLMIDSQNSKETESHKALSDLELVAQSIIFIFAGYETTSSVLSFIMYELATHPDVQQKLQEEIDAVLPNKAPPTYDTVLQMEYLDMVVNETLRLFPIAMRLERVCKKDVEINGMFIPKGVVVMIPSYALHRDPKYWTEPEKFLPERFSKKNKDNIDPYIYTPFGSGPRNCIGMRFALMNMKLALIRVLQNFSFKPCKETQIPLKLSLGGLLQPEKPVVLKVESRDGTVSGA
Procedure: as §1

CYP2C9 = CYP2C9 (Homo sapiens (Human), UniProt P11712); assay: CYP inhibition in human liver microsomes
Chain of CYP2C9 (P11712 whole entry): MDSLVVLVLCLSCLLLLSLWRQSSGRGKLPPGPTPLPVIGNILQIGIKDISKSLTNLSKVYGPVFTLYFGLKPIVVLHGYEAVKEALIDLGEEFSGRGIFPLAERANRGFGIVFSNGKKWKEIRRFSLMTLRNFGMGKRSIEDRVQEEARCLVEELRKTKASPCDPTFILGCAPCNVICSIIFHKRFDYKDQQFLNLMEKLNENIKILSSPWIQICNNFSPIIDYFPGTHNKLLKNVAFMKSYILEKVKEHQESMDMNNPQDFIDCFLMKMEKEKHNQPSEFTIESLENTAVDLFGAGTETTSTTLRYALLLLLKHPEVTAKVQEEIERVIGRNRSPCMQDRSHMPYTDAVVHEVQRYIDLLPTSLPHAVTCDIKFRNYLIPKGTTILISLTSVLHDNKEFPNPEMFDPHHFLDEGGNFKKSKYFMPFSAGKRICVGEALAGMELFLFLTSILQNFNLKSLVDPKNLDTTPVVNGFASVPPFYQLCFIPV
Procedure: as §1

CYP2C19 = CYP2C19 (Homo sapiens (Human), UniProt P33261); assay: CYP inhibition in human liver microsomes
Chain of CYP2C19 (P33261 whole entry): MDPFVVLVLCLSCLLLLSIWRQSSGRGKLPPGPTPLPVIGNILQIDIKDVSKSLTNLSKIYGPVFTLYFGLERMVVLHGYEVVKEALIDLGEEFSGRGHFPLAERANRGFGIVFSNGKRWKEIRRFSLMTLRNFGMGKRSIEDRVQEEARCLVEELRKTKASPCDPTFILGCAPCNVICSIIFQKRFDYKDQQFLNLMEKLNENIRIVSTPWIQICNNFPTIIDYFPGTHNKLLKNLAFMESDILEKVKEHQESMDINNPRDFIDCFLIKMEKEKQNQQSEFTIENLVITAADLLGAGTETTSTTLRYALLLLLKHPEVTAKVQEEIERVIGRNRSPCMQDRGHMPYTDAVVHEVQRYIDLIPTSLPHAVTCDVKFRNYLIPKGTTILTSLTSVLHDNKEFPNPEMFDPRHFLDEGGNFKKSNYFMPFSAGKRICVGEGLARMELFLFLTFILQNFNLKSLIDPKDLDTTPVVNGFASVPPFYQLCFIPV
Procedure: as §1

CYP1A2 = CYP1A2 (Homo sapiens (Human), UniProt P05177); assay: CYP inhibition in human liver microsomes
Chain of CYP1A2 (P05177 whole entry): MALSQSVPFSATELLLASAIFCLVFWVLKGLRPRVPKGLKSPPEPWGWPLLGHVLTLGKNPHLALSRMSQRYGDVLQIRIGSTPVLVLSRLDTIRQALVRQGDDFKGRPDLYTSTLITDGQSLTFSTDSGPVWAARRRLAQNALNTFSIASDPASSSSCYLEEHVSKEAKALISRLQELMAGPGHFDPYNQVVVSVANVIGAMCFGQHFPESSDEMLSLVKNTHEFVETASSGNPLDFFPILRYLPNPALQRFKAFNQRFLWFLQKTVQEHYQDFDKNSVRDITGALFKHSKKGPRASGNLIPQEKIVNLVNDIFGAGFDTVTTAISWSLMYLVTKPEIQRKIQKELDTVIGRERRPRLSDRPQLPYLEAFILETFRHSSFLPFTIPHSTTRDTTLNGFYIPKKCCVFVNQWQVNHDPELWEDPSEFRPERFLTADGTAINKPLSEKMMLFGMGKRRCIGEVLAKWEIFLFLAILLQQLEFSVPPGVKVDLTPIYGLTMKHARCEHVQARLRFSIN
Procedure: as §1

CYP2D6 = CYP2D6 (Homo sapiens (Human), UniProt P10635); assay: CYP inhibition in human liver microsomes
Chain of CYP2D6 (P10635 whole entry): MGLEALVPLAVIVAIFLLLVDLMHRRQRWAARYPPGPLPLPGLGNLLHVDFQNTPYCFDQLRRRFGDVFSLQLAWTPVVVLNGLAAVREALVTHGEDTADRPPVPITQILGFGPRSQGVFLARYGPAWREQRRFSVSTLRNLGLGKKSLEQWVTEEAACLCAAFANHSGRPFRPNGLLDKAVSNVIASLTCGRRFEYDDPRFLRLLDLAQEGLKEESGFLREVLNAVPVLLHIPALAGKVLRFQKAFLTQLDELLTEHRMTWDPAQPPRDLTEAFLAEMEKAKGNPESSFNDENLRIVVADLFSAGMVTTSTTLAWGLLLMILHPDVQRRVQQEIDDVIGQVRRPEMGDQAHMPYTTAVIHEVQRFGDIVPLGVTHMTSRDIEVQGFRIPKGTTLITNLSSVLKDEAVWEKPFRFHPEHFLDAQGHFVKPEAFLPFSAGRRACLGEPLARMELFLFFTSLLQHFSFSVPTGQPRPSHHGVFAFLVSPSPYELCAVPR
Procedure: as §1

[1] = In vitro microsomal stability, human liver microsomes; type: in vitro ADME; conditions: for Rem. @ hLM (%): remaining fraction after 30 min, 1 mM NADPH
Outline: (§2)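 1 μM compound was incubated at 37 °C with 0.5 mg/mL human, mouse or rat liver microsomes and 1 mM NADPH in 100 mM phosphate buffer pH 7.4. Reactions were stopped at 0, 5, 15 and 30 min with cold acetonitrile containing propranolol internal standard.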

[2] = Kinetic solubility (nephelometry); type: physicochemical; conditions: PBS pH 7.4, 1% DMSO, 1 hour at 37° C., light scattering at 625 nm
Procedure: Concentration (μM) was then calculated by segmental regression. Amiodarone (#A8423 Aldrich) was used as positive control.

[3] = mouse, in vivo, po, 10 mg/kg
Procedure: as §3, §4, §5, §6, §7

ATF6 = assay: ERSE ATF6-luciferase reporter assay (thapsigargin-induced ER stress); type: cell-based, human
[4] = In vitro microsomal stability, rat liver microsomes; type: in vitro ADME; conditions: for Rem. @ rLM (%): remaining fraction after 30 min, 1 mM NADPH
Outline: as §2

[5] = In vitro microsomal stability, mouse liver microsomes; type: in vitro ADME; conditions: for Rem. @ mLM (%): remaining fraction after 30 min, 1 mM NADPH
Outline: as §2

[6] = Oral bioavailability and PK parameters in Balb/c mice; conditions: single oral dose 10 mg/kg; for Vz: volume of distribution
Procedure: as §3, §4, §5, §6, §7

[7] = 1 μM compound, 0.5 mg/mL human liver microsomes
[8] = 1 μM compound, 0.5 mg/mL rat liver microsomes
[9] = 1 μM compound, 0.5 mg/mL mouse liver microsomes

Chain of CYP2B6 (P20813 whole entry, canonical isoform): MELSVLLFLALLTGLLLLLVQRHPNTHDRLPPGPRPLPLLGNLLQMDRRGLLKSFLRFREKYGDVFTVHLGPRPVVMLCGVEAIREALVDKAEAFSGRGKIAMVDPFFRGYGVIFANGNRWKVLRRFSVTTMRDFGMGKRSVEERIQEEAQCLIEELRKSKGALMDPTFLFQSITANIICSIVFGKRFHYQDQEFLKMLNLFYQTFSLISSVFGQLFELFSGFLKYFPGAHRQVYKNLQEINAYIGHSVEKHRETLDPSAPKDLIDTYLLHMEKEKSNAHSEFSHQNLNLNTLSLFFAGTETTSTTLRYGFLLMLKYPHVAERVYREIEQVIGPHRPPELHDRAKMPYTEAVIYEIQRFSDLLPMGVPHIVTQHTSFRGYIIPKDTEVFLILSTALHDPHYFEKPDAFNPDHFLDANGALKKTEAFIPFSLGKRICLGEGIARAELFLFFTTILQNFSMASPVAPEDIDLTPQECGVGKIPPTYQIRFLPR

Compound `CC(c1ccc(C(F)(F)F)cc1C(F)(F)F)n1cc(NC(=O)c2cc(-c3ccccn3)on2)cn1` (single isomer, unassigned) [“Enantiomer A” of Example S5, N-(1-(1-(2,4-bis(trifluoromethyl)phenyl)ethyl)-1H-pyrazol-4-yl)-5-(pyridin-2-yl)isoxazole-3-carboxamide] has an AUC(0-inf) (in vivo) of 32400 ng·h/mL, an AUC(0-t) (in vivo) of 18500 ng·h/mL and a Cmax (in vivo) of 4590 ng/mL. The Tmax (in vivo) was 1 h, the half-life (in vivo) was 6.88 h and the IC50 (CYP2B6) was 2.49 µM. For the same compound, the IC50 (CYP3A4) was over 50 µM, the IC50 (CYP2C9) was 3.07 µM and the IC50 (CYP2C19) was 2.31 µM. It also gave an IC50 (CYP1A2) of over 50 µM, an IC50 (CYP2D6) of 2.3 µM and a half-life at 1 μM ([1]; human, human liver microsomes, pH 7.4, read-out: T1/2 @ hLM) of 1.66 h. For the same compound, the microsomal CLint at 1 μM ([1]; pH 7.4, intrinsic clearance, human liver microsomes, read-out: Clint @ hLM) was 13.9 µL/min/mg, the “Rem. @ hLM (%)” value [1, 7] was 81.9% and the solubility kinetic at 1 h ([2]; aqueous buffer, kinetic from dmso stock) was 4.68 µM (≈ 2.32 µg/mL). For the same compound, the “AUCExtr [%]” value ([3]; Balb/c) was 43%, the “F [%]” value ([3]; Balb/c) was 66.3% and the “Last time point for AUClast” value [3] was 8 h. For the same compound, the IC50 (ATF6) was under 1 µM, the “Inh. ATF6-Luc @ 1 μM [%]” value (ATF6; 8 h, 1 µM) was “+++ (+++ refers to >50% inhibition at 1 μM test compound)” and the microsomal CLint at 1 μM ([4]; pH 7.4, intrinsic clearance, rat liver microsomes, read-out: Clint @ rLM) was 11.5 µL/min/mg. The half-life at 1 μM ([4]; rat, rat liver microsomes, pH 7.4, read-out: T1/2 @ rLM) was 2.02 h, the “Rem. @ rLM (%)” value [4, 8] was 80% and the half-life at 1 μM ([5]; mouse, mouse liver microsomes, pH 7.4, read-out: T1/2 @ mLM) was 0.582 h. For the same compound, the microsomal CLint at 1 μM ([5]; pH 7.4, intrinsic clearance, mouse liver microsomes, read-out: Clint @ mLM) was 39.7 µL/min/mg, the “Rem. @ mLM (%)” value [5, 9] was 53.8% and the “Vz” value [6] was 3.07 L/kg.
Compound `O=C(Nc1cnn(Cc2ccc(C(F)(F)F)cc2C(F)(F)F)c1)c1cc(-c2ccco2)on1` [Ceapin-A7, reference compound] has an IC50 (CYP2B6; microsomes) of 7.48 µM, an IC50 (CYP3A4; read-out: CYP-3A4, human liver microsomes, probe substrate midazolam) of over 50 µM and an IC50 (CYP2C9; microsomes) of over 45.3 µM. The IC50 (CYP1A2; microsomes) was over 50 µM, the IC50 (CYP2D6; microsomes) was over 50 µM and the “T1/2 @ hLM” value ([1]; half-life, 1 μM compound, 0.5 mg/mL human liver microsomes) was 0.36 h. For the same compound, the “Clint @ hLM” value ([1]; intrinsic clearance, human liver microsomes) was 64.2 µL/min/mg, the “Rem. @ hLM (%)” value [1, 7] was 35.4% and the solubility kinetic at 1 h [2] was 27.7 µM (≈ 13 µg/mL). For the same compound, the “Inh. ATF6-Luc @ 1 μM [%]” value (ATF6; 1 μM test compound, thapsigargin-induced ER stress, U2-OS ATF6 luc reporter cells, 8 hr) was “+++ (+++ refers to >50% inhibition at 1 μM test compound)”, the IC50 (ATF6; dose-response 30 μM to 1 nM, thapsigargin-induced ER stress, U2-OS ATF6 luc reporter cells, read-out: IC50 ATF6-Luc reporter) was under 1 µM and the “T1/2 @ rLM” value ([4]; half-life, 1 μM compound, 0.5 mg/mL rat liver microsomes) was 0.19 h. The “Clint @ rLM” value ([4]; intrinsic clearance, rat liver microsomes) was 121 µL/min/mg, the “Rem. @ rLM (%)” value [4, 8] was 14.5% and the “T1/2 @ mLM” value ([5]; half-life, 1 μM compound, 0.5 mg/mL mouse liver microsomes) was 9.84 min. The “Clint @ mLM” value ([5]; intrinsic clearance, mouse liver microsomes) was 141 µL/min/mg, the “Rem. @ mLM (%)” value [5, 9] was 12% and the “F [%]” value ([6]; Bioavailability) was 1.04%. For the same compound, the “Last time point for AUClast” value [6] was 6 h, the “CL” value ([6]; clearance) was 231 L/h/kg and the “t1/2” value ([6]; half-life) was 2.49 h. The “AUCinf” value ([6]; plasma) was 43.3 ng·h/mL, the “AUClast” value ([6]; plasma) was 39.1 ng·h/mL and the “Cmax” value ([6]; plasma) was 68.7 ng/mL. The “Tmax” value ([6]; plasma) was 0.25 h, the “AUCExtr [%]” value ([6]; plasma, extrapolated AUC) was 9.56% and the “Vz” value [6] was 831 L/kg.
